Legend:
[1] = molecular target: T1, menin/MLL (terbium chelate-labeled menin, FITC-MBM1 peptide) (Homo sapiens, UniProt O00255, T541A); assay: Menin/MLL homogenous time-resolved fluorescence (HTRF) assay; format: binding; conditions: 30 min incubation
T1 construct: Menin (a.a 1-610-6xhis tag, 2.3 mg/mL in 20 mM Hepes)
T1 sequence (O00255 with tags, fused parts or gaps T541A): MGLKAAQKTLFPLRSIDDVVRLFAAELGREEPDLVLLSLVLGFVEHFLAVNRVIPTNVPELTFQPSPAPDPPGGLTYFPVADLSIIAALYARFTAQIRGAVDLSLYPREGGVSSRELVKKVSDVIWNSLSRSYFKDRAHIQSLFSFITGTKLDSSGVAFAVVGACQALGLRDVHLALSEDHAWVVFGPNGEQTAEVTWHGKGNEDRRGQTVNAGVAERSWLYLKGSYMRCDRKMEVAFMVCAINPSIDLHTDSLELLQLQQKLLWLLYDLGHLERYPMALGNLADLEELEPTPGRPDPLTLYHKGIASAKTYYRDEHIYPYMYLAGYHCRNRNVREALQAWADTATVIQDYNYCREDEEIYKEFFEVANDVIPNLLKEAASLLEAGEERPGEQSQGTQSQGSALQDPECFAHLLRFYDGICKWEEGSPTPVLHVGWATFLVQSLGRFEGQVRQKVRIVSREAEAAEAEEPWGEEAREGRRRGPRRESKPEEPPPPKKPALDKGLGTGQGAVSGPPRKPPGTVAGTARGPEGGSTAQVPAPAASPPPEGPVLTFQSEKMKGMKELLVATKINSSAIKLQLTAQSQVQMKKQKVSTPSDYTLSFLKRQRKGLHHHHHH
Summary of the method: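 Terbium-labeled menin (a.a. 1-610, His-tagged; […]) pre-incubated 30 min with compound, then 75 nM FITC-MBM1 peptide added for 15 min at ambient temperature in Tris pH 7.5 buffer, 0.5% DMSO. HTRF 520/490 nm ratio read; IC50 from 11-point four-fold titrations, typically from 10 μM.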

MEIS1 mRNA expression = MEIS1 mRNA expression assay (Quantigene Singleplex) in MOLM14 cells; format: cell-based, human; conditions: 48 hours incubation
Summary of the method: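 MOLM14 cells, 3,750/well, exposed to increasing compound concentrations for 48 h. MEIS1 mRNA measured by QuantiGene Singleplex branched-DNA hybridization (lysis 45 min, hybridization 18–22 h, both 55 °C), normalized to RPL28. IC50 fitted to background-corrected fold change versus DMSO.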

IC50 [1] [nM] | IC50 (MEIS1 mRNA expression; Homo sapiens, MOLM-14, 48 h) [nM] | IC50 (MEIS1 mRNA expression) [nM] | SMILES
0.138 | 23 | – | CC(=O)N1CCN(CCCC(C(C)C)N2CC[C@H](Cc3cn(-c4ccc(F)cc4C(=O)N(C)C(C)C)c4cncc(C)c34)C2)CC1 (mixture of isomers) [Compound 9]
0.034 | 13 | – | Cc1cncc2c1c(C[C@@H]1CCN([C@@H](CO)C3CCCOC3)C1)cn2-c1ccc(F)cc1C(=O)N(C)C(C)C (single isomer, unassigned) [Compound 198a]
0.027 | 16 | – | Cc1cncc2c1c(CC1CCN(CC3CCN(C(=O)C(C)(C)O)CC3)C1)cn2-c1ccc(F)cc1C(=O)N(C)C(C)C (single isomer, unassigned) [Compound 125]
0.078 | 238 | – | CN=S(=O)(c1cc(F)ccc1-n1cc(CC2CCN(CC3CCN(C(C)=O)CC3)C2)c2c(C)cncc21)C(C)C (stereo not drawn) [Compound 128]
0.075 | 131 | – | CC(=O)N1CCC(C)(CN2CC(Cc3cn(-c4ccc(F)cc4C(=O)N(C)C(C)C)c4cncc(C)c34)C2)CC1 [Compound 84]
0.025 | 17 | – | CNC(=O)[C@H]1CC[C@H](CN2CC([C@H](C)c3cn(-c4ccc(F)cc4C(=O)N(C)C(C)C)c4cncc(C)c34)C2)CC1 (single isomer, unassigned) [Compound 164b]
0.909 | – | ~864 | CC(=O)NC1CCC(N2CC[C@@H](Cc3cn(-c4ccc(F)cc4C(=O)N(C)C(C)C)c4cncc(C)c34)C2)CC1 (stereo partly drawn) [Compound 200]
0.031 | 18 | – | CC(=O)N1CCC(CN2CC[C@@H](Cc3cn(-c4ccc(F)cc4C(=O)N4CCC5CC54)c4cncc(C)c34)C2)CC1 (stereo partly drawn) [Compound 311]
0.056 | 39 | – | Cc1cncc2c1c(CC1CN(C[C@H]3CCOC3)C1)cn2-c1ccc(F)cc1C(=O)N(C)C(C)C (single isomer, unassigned) [Compound 191a]
0.037 | 14 | – | CC(=O)N1CCC(CN2CC[C@@H](Cc3cn(-c4ccc(F)cc4C(=O)N4CCC5CC54)c4cncc(C)c34)C2)CC1 (single isomer, unassigned) [Compound 311a]
0.101 | 113 | – | Cc1cncc2c1c(C[C@@H]1CCN(C[C@H]3CCOC3)C1)cn2-c1ccc(F)cc1C(=O)N(C)C(C)C (single isomer, unassigned) [Compound 190a]
0.143 | 117 | – | Cc1cncc2c1c(C[C@@H]1CCN([C@H](C)C3CCOCC3)C1)cn2-c1ccc(F)cc1[S@](=N)(=O)C(C)C (single isomer, unassigned) [Compound 180a]
0.018 | 15 | – | Cc1cncc2c1c(CC1CN(CC3CCOCC3)C1)cn2-c1ccc(F)cc1C(=O)N1CCC2CC21 (stereo not drawn) [Compound 262]
0.147 | 254 | – | Cc1cncc2c1c(CC1CN(CC3CCNC(=O)CC3)C1)cn2-c1ccc(F)cc1C(=O)N(C)C(C)C (stereo not drawn) [Compound 104]
0.247 | 266 | – | Cc1cncc2c1c(C[C@@H]1CCN(C[C@@H]3CCNC(=O)CC3)C1)cn2-c1ccc(F)cc1C(=O)N1[C@H](C)CC[C@H]1C (single isomer, unassigned) [Compound 352b]
0.058 | 13 | – | Cc1cncc2c1c(CC1CN(CC3CCOCC3)C1)cn2-c1ccc(F)cc1C(=O)N(CCO)C(C)C [Compound 281]
0.293 | 240 | – | CC(=O)N1CCC(CN2CC[C@@H](Cc3cn(-c4ccc(F)cc4C(=O)N4CCC[C@@H]4C)c4cncc(C)c34)C2)CC1 [Compound 319]
0.016 | 11 | – | COCCN(C)CCCC(C(C)C)N1CC[C@H](Cc2cn(-c3ccc(F)cc3C(=O)N(C)C(C)C)c3cncc(Cl)c23)C1 (stereo partly drawn) [Compound 4]

IC50 [1] [nM] | IC50 (MEIS1 mRNA expression; Homo sapiens, MOLM-14, 48 h) [nM] | IC50 (MEIS1 mRNA expression) [nM] | SMILES
0.078 | 23 | – | CC(=O)N1CCC(CN2CC[C@@H](Cc3cn(-c4ccc(F)cc4C(=O)N(CC(C)O)C(C)C)c4cncc(C)c34)C2)CC1 (stereo partly drawn) [Compound 320]
0.299 | 327 | – | Cc1cncc2c1c(C[C@@H]1CCN(CC3CCOCC3)C1)cn2-c1ccc(F)cc1S(=N)(=O)C(C)C (mixture of isomers) [Compound 78]
0.026 | 10 | – | COCCN(C)CCCC(C(C)C)N1CC[C@@H](Cc2cn(-c3ccc(F)cc3C(=O)N(C)C(C)C)c3cncc(Cl)c23)C1 (stereo partly drawn) [Compound 3]
0.106 | 19 | – | Cc1cncc2c1c(C[C@@H]1CCN(CC3CCC(O)CC3)C1)cn2-c1ccc(F)cc1C(=O)N(C)C(C)C (stereo partly drawn) [Compound 205]
0.208 | – | ~260 | CN=S(=O)(c1cc(F)ccc1-n1cc(CC2CCN(CC3CCOCC3)C2)c2c(C)cncc21)C(C)C (single isomer, unassigned) [Compound 77d]
0.066 | 111 | – | Cc1cncc2c1c(C[C@H]1CCN([C@H](C)C3CCOCC3)C1)cn2-c1ccc(F)cc1[S@](=N)(=O)C(C)C (single isomer, unassigned) [Compound 181a]
0.016 | 29 | – | Cc1cncc2c1c(C[C@@H]1CCN(CC3CCN(C(N)=O)CC3)C1)cn2-c1ccc(F)cc1C(=O)N(C)C(C)C [Compound 207]
0.071 | 41 | – | Cc1cncc2c1c(CC1CN(C[C@@H]3CCOC3)C1)cn2-c1ccc(F)cc1C(=O)N(C)C(C)C (single isomer, unassigned) [Compound 191b]
0.061 | 71 | – | Cc1cncc2c1c(C[C@@H]1CCN(CC3CCNC(=O)CC3)C1)cn2-c1ccc(F)cc1C(=O)N(C)C(C)C (mixture of isomers) [Compound 169]
0.544 | 314 | – | CC(=O)N1CCC(CCN2CC[C@@H](Cc3cn(-c4ccc(F)cc4C(=O)N(C)C(C)C)c4cncc(C)c34)C2)CC1 [Compound 189]
0.097 | 44 | – | CNC(=O)[C@H]1CC[C@@H](CN2CC[C@@H](Cc3cn(-c4ccc(F)cc4C(=O)N(C)C(C)C)c4cncc(C)c34)C2)CC1 [Compound 185]
0.034 | 25 | – | Cc1cncc2c1c(CC1CN(CC3CCOCC3)C1)cn2-c1ccc(F)cc1C(=O)N1CC2CC1CO2 (stereo not drawn) [Compound 264]
0.057 | 71 | – | CCC([C@H]1C[C@@H](N2CCN(C(C)=O)CC2)C1)N1CC[C@@H](Cc2cn(-c3ccc(F)cc3C(=O)N(C)C(C)C)c3cncc(C)c23)C1 (mixture of isomers) [Compound 24]
0.041 | – | 23 | Cc1cncc2c1c(CC1CCN(CC3CCC(=O)N(C)CC3)C1)cn2-c1ccc(F)cc1C(=O)N(C)C(C)C (single isomer, unassigned) [Compound 184a]
0.055 | 14 | – | Cc1cncc2c1c(C[C@@H]1CCN(C[C@H]3CC[C@@H](C(=O)N4CCC4)CC3)C1)cn2-c1ccc(F)cc1C(=O)N(C)C(C)C [Compound 178]
0.301 | 247 | – | COCCN(C)CCC[C@H](C(C)C)N1CC[C@H](Cc2cn(-c3ccc(F)cc3C(=O)N(C)C(C)C)c3cncc(Cl)c23)C1 (single isomer, unassigned) [Compound 4a]
0.365 | 23 | – | CC(=O)N1CCN(CCCC(C(C)C)N2CC[C@@H](Cc3cn(-c4ccc(F)cc4C(=O)N(C)C(C)C)c4cncc(C)c34)C2)CC1 (mixture of isomers) [Compound 8]
0.091 | 79 | – | Cc1cncc2c1c(CC1CCN(CC3CCN(C(=O)N4CCOCC4)CC3)CC1)cn2-c1ccc(F)cc1C(=O)N(C)C(C)C [Compound 204]

— patent publication US20230250096A1, “SUBSTITUTED PHENYL-1H-PYRROLO[2,3-c] PYRIDINE DERIVATIVES” (Janssen Pharmaceutica NV, priority 2021, published 2023)
